Measurements taken from PMC9232612, “A phase 1b randomised controlled trial of a glucagon-like peptide-1 and glucagon receptor dual agonist IBI362 (LY3305677) in Chinese patients with type 2 diabetes” (Nature Communications, 2022).
Where “and” joins values, the source holds several entries; their conditions need not be identical. Identical values can stand only once.

What was measured:
Type in all cases: in vivo, human
[1] = tested on: Chinese patients with T2D; test: Glycated haemoglobin A1c (HbA1c); details: for Change from baseline to week 12 in HbA1c, single patients / HbA1c at week 12, single patients: each line a single patient; for Change from baseline in HbA1c, LS mean / Change from baseline in HbA1c, LS mean (SE): n=8; for Change from baseline in HbA1c, LS mean / Change from baseline in HbA1c, LS mean (SE) / HbA1c: ETD versus placebo, LS mean (90% CI): MMRM
Experimental: HbA1c (2200101, Bio-Rad, USA), blood glucose (05168791190, Roche Diagnostics, Germany), insulin (12017547122, Roche Diagnostics, Germany), C peptide (03184897190, Roche Diagnostics, Germany), total GLP-1 (GLP-1 [7–36] amide and its metabolite, GLP-1 [9–36] amide, 10-1278-01, Mercodia AB, Sweden) and OXM (AL-139, AnshLabs, USA) tests were performed according to the manufactures’ instruction manuals in a central laboratory (KingMed Diagnostics, Guangzhou, China). HbA1c was measured using a Bio-rad D-100 Haemoglobin Testing System (Bio-rad). Blood glucose was measured using a Roche Cobas c702 analyser (Roche Diagnostics). Insulin and C peptide were measured using a Roche […] analyser (Roche Diagnostics). GLP-1 and OXM were measured using a Tecan Infinite M Plex microplate reader (TECAN).
Standard non-compartmental pharmacokinetics methods were used to analyze IBI362 plasma concentration data using Pkanalix 2020R1 (Lixoft, Antony, France). Secondary efficacy outcomes included change from baseline to week 12 in HbA1c, fasting plasma glucose (FPG), fasting insulin levels, change from baseline to week 12 in post-mixed-meal tolerance test (post-MTT) glucose, insulin, C peptide, GLP-1 and OXM levels, as well as seven-point self-measured blood glucose (SMBG) profile.
The analyses for change from baseline in HbA1c, FPG, post-MTT glucose AUC0–4 h and body weight were performed using the mixed-effect model for repeated measures (MMRM) with least-squares means and standard error provided. The MMRM included the corresponding baseline value, treatment, visit and treatment-by-visit as fixed effects and patient as a random effect. Mean change or mean percent change from baseline were analysed using a restricted maximum likelihood (REML)‐based repeated measures approach in combination with the Newton Raphson Algorithm. The fix effect of visit was fitted as a repeated effect and an unstructured covariance matrix was used. In case of non-converge, matrix like Variance Components and Compound Symmetry will be tested in a subsequent order until model‐convergence is achieved. The Kenward-Roger degree of freedom was used in estimating fixed effects. No missing data imputation was conducted. For HbA1c, FPG and body weight, point estimate of treatment difference versus placebo and 90% CI were provided for each IBI362 dose group and the dulaglutide group, with nominal p values.

[2] = tested on: Chinese patients with T2D; test: Change from baseline in heart rate, standard 12-lead electrocardiogram
Excerpt: Primary outcomes of the study were the safety and tolerability of IBI362. Safety assessment included adverse events, physical examinations, laboratory tests (including lipase, amylase and calcitonin level measures), vital signs and 12-lead electrocardiogram. Adverse events were categorized according to the Medical Dictionary for Regulatory Activities system organ classes (SOCs) and preferred terms. Treatment-emergent adverse events (TEAEs) were monitored from the time of informed consent to the safety follow-up period. The severity of TEAEs (mild, moderate or severe) and the association between an event and the study drug were assessed by investigators based on pre-specified criteria.
CFB in heart rate (beats/min),
Fig. S1: Change from baseline in heart rate over time.
Data are from standard 12-lead electrocardiogram, measured at 1 hour before each dose in the morning from week 0 to week 11, and 168 hours after the last dose (week 12). Data are plotted as means +/- SD. CFB = change from baseline; SD = standard deviation.Source data are provided as […]
(1 picture or pasted object on this page, not shown here)

Body-mass index (BMI) = details: mean
Excerpt: (§1) Exploratory outcomes included change from baseline in body weight, waist circumference, body-mass index (BMI) and change in homeostatic model assessment of β-cell function (HOMA-β) and insulin resistance (HOMA-IR).

[3] = tested on: Chinese patients with T2D; test: Homeostatic model assessment of insulin resistance (HOMA-IR); details: for Change from baseline to week 12 in HOMA-IR, individual: single patients
Excerpt: as §1

CC(C)C[C@H](NC(=O)[C@H](CC(C)C)NC(=O)[C@H](Cc1c[nH]c2ccccc12)NC(=O)[C@H](CCC(=O)O)NC(=O)[C@@H](NC(=O)[C@H](Cc1ccccc1)NC(=O)[C@H](CCC(=O)O)NC(=O)[C@H](CCCCNC(=O)COCCOCCNC(=O)COCCOCCNC(=O)CC[C@H](NC(=O)CCCCCCCCCCCCCCCCCCC(=O)O)C(=O)O)NC(=O)[C@H](C)NC(=O)[C@H](CCCCN)NC(=O)[C@H](CCCCN)NC(=O)[C@H](CCC(=O)O)NC(=O)[C@H](CC(=O)O)NC(=O)[C@H](CC(C)C)NC(=O)[C@H](Cc1ccc(O)cc1)NC(=O)[C@H](CCCCN)NC(=O)[C@H](CO)NC(=O)[C@H](Cc1ccc(O)cc1)NC(=O)[C@H](CC(=O)O)NC(=O)[C@H](CO)NC(=O)[C@@H](NC(=O)[C@H](Cc1ccccc1)NC(=O)[C@@H](NC(=O)CNC(=O)[C@H](CCC(N)=O)NC(=O)C(C)(C)NC(=O)[C@@H](N)Cc1c[nH]cn1)[C@@H](C)O)[C@@H](C)O)C(C)C)C(=O)N[C@@H](CCC(=O)O)C(=O)NCC(=O)NCC(=O)N1CCC[C@H]1C(=O)N[C@@H](CO)C(=O)N[C@@H](CO)C(=O)NCC(N)=O [IBI362]
Percent of patients with change from baseline to week 12 in HbA1c <1.0% ([1]; all IBI362 cohorts, n=24): 8.3% | Percent of patients with change from baseline to week 12 in HbA1c ≥1.0% and <1.5% ([1]; all IBI362 cohorts, n=24): 16.7% | Percent of patients with change from baseline to week 12 in HbA1c ≥1.5% and <2.0% ([1]; all IBI362 cohorts, n=24): 29.2% | Percent of patients with change from baseline to week 12 in HbA1c ≥2.0% ([1]; all IBI362 cohorts, n=24): 33.3% | Change from baseline to week 12 in HbA1c, single patients ([1]; 3.0 mg cohort): -2.8% and -1.4% and -1.0% and -1.9% and -1.8% and -2.7% and -1.3% | HbA1c at week 12, single patients ([1]; 3.0 mg cohort): 6.4% and 6.1% and 8.6% and 7.3% and 6.8% and 6.7% and 7.4% | Change from baseline to week 12 in HbA1c, single patients ([1]; 4.5 mg cohort): -1.2% and -1.7% and -2.3% and -3.3% and -3.7% | HbA1c at week 12, single patients ([1]; 4.5 mg cohort): 6.1% and 6.3% and 5.7% and 6.9% and 6.8% and 6.0% | HbA1c at week 12, single patients ([1]; 6.0 mg cohort): 7.0% and 6.8% and 5.9% and 6.1% and 7.1% and 5.8% and 7.8% | Change from baseline in HbA1c, LS mean ([1]; week 4, 3.0 mg cohort): -0.38% | Change from baseline in HbA1c, LS mean ([1]; week 4, 4.5 mg cohort): -0.80% | Change from baseline in HbA1c, LS mean ([1]; week 4, 6.0 mg cohort): -0.61% | Change from baseline in HbA1c, LS mean ([1]; week 8, 3.0 mg cohort): -0.98% | Change from baseline in HbA1c, LS mean ([1]; week 8, 4.5 mg cohort): -1.58% | Change from baseline in HbA1c, LS mean ([1]; week 8, 6.0 mg cohort): -1.32% | Change from baseline in HbA1c, LS mean (SE) ([1]; week 12, 3.0 mg cohort): -1.46% | HbA1c: ETD versus placebo, LS mean (90% CI) ([1]; week 12, 3.0 mg cohort): −0.59% | Change from baseline in HbA1c, LS mean (SE) ([1]; week 12, 4.5 mg cohort): -2.23% | HbA1c: ETD versus placebo, LS mean (90% CI) ([1]; week 12, 4.5 mg cohort): −1.35% | Change from baseline in HbA1c, LS mean (SE) ([1]; week 12, 6.0 mg cohort): -1.66% | HbA1c: ETD versus placebo, LS mean (90% CI) ([1]; week 12, 6.0 mg cohort): −0.79% | patients achieving HbA1c level of 6.5% or lower ([1]; week 12, all IBI362 cohorts): nine | patients achieving ≥1.5% reductions in HbA1c from baseline ([1]; week 12, all IBI362 cohorts, n=24): 62.5% | heart rate, mean change from baseline (bound) ([2]; 3.0 mg cohort): < 10 beats per minute | heart rate, mean change from baseline (bound) ([2]; 6.0 mg cohort): < 15 beats per minute | heart rate increase (up to) ([2]; patients receiving IBI362): 10-15 beats per minute | Change from baseline to week 12 in BMI (Body-mass index (BMI); IBI362 3.0 mg): -0.38 kg/m2 | Change from baseline to week 12 in BMI (Body-mass index (BMI); IBI362 4.5 mg): -1.25 kg/m2 | Change from baseline to week 12 in BMI (Body-mass index (BMI); IBI362 6.0 mg): -1.36 kg/m2 | Change from baseline to week 12 in HOMA-IR, mean ([3]; 3.0 mg cohort, n=7): -2.1 | Change from baseline to week 12 in HOMA-IR, mean ([3]; 4.5 mg cohort, n=5): -1.5 | Change from baseline to week 12 in HOMA-IR, mean ([3]; 6.0 mg cohort, n=8): -5.4 | Change from baseline to week 12 in HOMA-IR, individual ([3]; 3.0 mg cohort, n=7): -4.8 and -1.3 and -2.3 and -1.2 and -2.4 | Change from baseline to week 12 in HOMA-IR, individual ([3]; 4.5 mg cohort, n=5): -2.8 and -5.0 and -1.9 and 2.5 and -0.5 | Change from baseline to week 12 in HOMA-IR, individual ([3]; 6.0 mg cohort, n=8): -1.9 and -5.3 and -0.4 and -4.2 and -1.1 and -1.0 and -22.2 and -7.0
